# Data: patent publication US12498382B2, “Biomarkers for vitiligo” (INCYTE CORPORATION, priority 2019, dated 2025)
# System: HaCaT cells
# Assay: Concentrations of inflammatory mediators produced by HaCaT cells stimulated with TNFα and IFNγ in presence/absence of JAK inhibitors (ProCarta)
# Format: cell-based, human
# Conditions: TNFα 25 ng/mL + IFNγ 25 ng/mL
# Summary of the method: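 Mediator levels (pg/mL) in culture media quantified by multiplex Luminex bead assay against standard curves. Media collected after 24 h at 37 °C from HaCaT cells exposed to 25 ng/mL each of IFNγ and TNFα following 15 min drug pre-incubation; drug final concentrations 25–200 nM (25, 50, 100, 200 nM).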
compound,measurement,setting,value
N#CCC1(n2cc(-c3ncnc4[nH]ccc34)cn2)CN(C2CCN(C(=O)c3ccnc(C(F)(F)F)c3F)CC2)C1 [Cpc B],BDNF concentration,drug 25 nM,4.05 ± 0.19 pg/mL
same,EGF concentration,drug 25 nM,1.76 ± 0.17 pg/mL
same,Eotaxin concentration,drug 25 nM,10.22 ± 0.15 pg/mL
same,FGF-2 concentration,drug 25 nM,20.63 ± 1.49 pg/mL
same,GM-CSF concentration,drug 25 nM,130.13 ± 2.13 pg/mL
same,GRO alpha concentration,drug 25 nM,547.38 ± 31.41 pg/mL
same,HGF concentration,drug 25 nM,14.15 ± 0.3 pg/mL
same,IFN alpha concentration,drug 25 nM,0.24 ± 0.02 pg/mL
same,IFN gamma concentration,drug 25 nM,35023.68 ± 10759.49 pg/mL
same,IL1RA concentration,drug 25 nM,5944.59 ± 264.97 pg/mL
same,IL1 alpha concentration,drug 25 nM,7.34 ± 0.31 pg/mL
same,IL1 beta concentration,drug 25 nM,9.53 ± 0.3 pg/mL
same,IL2 concentration,drug 25 nM,33.62 ± 1.88 pg/mL
same,IL4 concentration,drug 25 nM,6.74 ± 1.65 pg/mL
same,IL5 concentration,drug 25 nM,27.31 ± 1.32 pg/mL
same,IL6 concentration,drug 25 nM,749.64 ± 32.94 pg/mL
same,IL7 concentration,drug 25 nM,2.14 ± 0.12 pg/mL
same,IL8 concentration,drug 25 nM,2837.03 ± 135.03 pg/mL
same,IL9 concentration,drug 25 nM,4.55 ± 0.85 pg/mL
same,IL10 concentration,drug 25 nM,0.87 ± 0.06 pg/mL
same,IL12p70 concentration,drug 25 nM,2.01 ± 0.21 pg/mL
same,IL13 concentration,drug 25 nM,2.79 ± 0.33 pg/mL
same,IL15 concentration,drug 25 nM,3.3 ± 0.93 pg/mL
same,IL17A concentration,drug 25 nM,4.6 ± 0.5 pg/mL
same,IL18 concentration,drug 25 nM,162.16 ± 4.98 pg/mL
same,IL21 concentration,drug 25 nM,2.66 ± 0.22 pg/mL
same,IL22 concentration,drug 25 nM,8.69 ± 0.42 pg/mL
same,IL23 concentration,drug 25 nM,7.28 ± 0.16 pg/mL
same,IL27 concentration,drug 25 nM,8.03 ± 1.71 pg/mL
same,IL31 concentration,drug 25 nM,3.6 ± 0.28 pg/mL
same,IP-10/CXCL10 concentration,drug 25 nM,4068.98 ± 507.12 pg/mL
same,LIF concentration,drug 25 nM,68.82 ± 2.51 pg/mL
same,MCP1 concentration,drug 25 nM,29762.04 ± 13226.23 pg/mL
same,MIP1 alpha concentration,drug 25 nM,103.81 ± 3.29 pg/mL
same,MIP1 beta concentration,drug 25 nM,319.77 ± 6.92 pg/mL
same,PDGF-BB concentration,drug 25 nM,5.19 ± 0.15 pg/mL
same,PIGF-1 concentration,drug 25 nM,56.69 ± 2.37 pg/mL
same,RANTES concentration,drug 25 nM,203.77 ± 12.55 pg/mL
same,SCF concentration,drug 25 nM,4.33 ± 0.18 pg/mL
same,SDF-1 alpha concentration,drug 25 nM,3430.87 ± 111.52 pg/mL
same,TNF alpha concentration,drug 25 nM,10574.99 ± 753.02 pg/mL
same,TNF beta concentration,drug 25 nM,4.91 ± 0.79 pg/mL
same,VEGF-A concentration,drug 25 nM,1249.75 ± 44.89 pg/mL
same,VEGF-D concentration,drug 25 nM,9.22 ± 0.87 pg/mL
same,bNGF concentration,drug 25 nM,7.7 ± 0.55 pg/mL
same,BDNF concentration,drug 50 nM,4.04 ± 0.24 pg/mL
same,EGF concentration,drug 50 nM,1.67 ± 0.15 pg/mL
same,Eotaxin concentration,drug 50 nM,9.92 ± 0.2 pg/mL
same,FGF-2 concentration,drug 50 nM,19.94 ± 1.49 pg/mL
same,GM-CSF concentration,drug 50 nM,128.05 ± 2.9 pg/mL
same,GRO alpha concentration,drug 50 nM,544.63 ± 38.3 pg/mL
same,HGF concentration,drug 50 nM,13.65 ± 0.53 pg/mL
same,IFN alpha concentration,drug 50 nM,0.26 ± 0 pg/mL
same,IFN gamma concentration,drug 50 nM,28977.92 ± 7400.61 pg/mL
same,IL1RA concentration,drug 50 nM,5840.44 ± 314.35 pg/mL
same,IL1 alpha concentration,drug 50 nM,7.06 ± 0.37 pg/mL
same,IL1 beta concentration,drug 50 nM,8.96 ± 0.43 pg/mL
same,IL2 concentration,drug 50 nM,31.96 ± 1.47 pg/mL
same,IL4 concentration,drug 50 nM,5.74 ± 1.1 pg/mL
same,IL5 concentration,drug 50 nM,25.5 ± 1.65 pg/mL
same,IL6 concentration,drug 50 nM,674.21 ± 27.15 pg/mL
same,IL7 concentration,drug 50 nM,1.9 ± 0.12 pg/mL
same,IL8 concentration,drug 50 nM,2862.21 ± 240.57 pg/mL
same,IL9 concentration,drug 50 nM,4.13 ± 0.43 pg/mL
same,IL10 concentration,drug 50 nM,0.85 ± 0.05 pg/mL
same,IL12p70 concentration,drug 50 nM,1.68 ± 0.21 pg/mL
same,IL13 concentration,drug 50 nM,2.73 ± 0.23 pg/mL
same,IL15 concentration,drug 50 nM,2.71 ± 0.65 pg/mL
same,IL17A concentration,drug 50 nM,4.09 ± 0.43 pg/mL
same,IL18 concentration,drug 50 nM,153.4 ± 3.46 pg/mL
same,IL21 concentration,drug 50 nM,2.45 ± 0.29 pg/mL
same,IL22 concentration,drug 50 nM,8.9 ± 0^ pg/mL
same,IL23 concentration,drug 50 nM,7.43 ± 0 pg/mL
same,IL27 concentration,drug 50 nM,6.95 ± 0.83 pg/mL
same,IL31 concentration,drug 50 nM,3.22 ± 0.38 pg/mL
same,IP-10/CXCL10 concentration,drug 50 nM,3872.74 ± 295.01 pg/mL
same,LIF concentration,drug 50 nM,67.89 ± 3.08 pg/mL
same,MCP1 concentration,drug 50 nM,27471.13 ± 12271.13 pg/mL
same,MIP1 alpha concentration,drug 50 nM,100.64 ± 4.66 pg/mL
same,MIP1 beta concentration,drug 50 nM,318.84 ± 8.17 pg/mL
same,PDGF-BB concentration,drug 50 nM,5.28 ± 0.18 pg/mL
same,PIGF-1 concentration,drug 50 nM,53.92 ± 2.81 pg/mL
same,RANTES concentration,drug 50 nM,198.35 ± 15.1 pg/mL
same,SCF concentration,drug 50 nM,4.16 ± 0.18 pg/mL
same,SDF-1 alpha concentration,drug 50 nM,3356.32 ± 136.22 pg/mL
same,TNF alpha concentration,drug 50 nM,11776.9 ± 1658.47 pg/mL
same,TNF beta concentration,drug 50 nM,4.13 ± 0.5 pg/mL
same,VEGF-A concentration,drug 50 nM,1242.76 ± 50.39 pg/mL
same,VEGF-D concentration,drug 50 nM,9.72 ± 0.75 pg/mL
same,bNGF concentration,drug 50 nM,7.09 ± 0.71 pg/mL
same,BDNF concentration,drug 100 nM,4.06 ± 0.26 pg/mL
same,EGF concentration,drug 100 nM,1.56 ± 0.2 pg/mL
same,Eotaxin concentration,drug 100 nM,10.09 ± 0.19 pg/mL
same,FGF-2 concentration,drug 100 nM,20.42 ± 1.5 pg/mL
same,GM-CSF concentration,drug 100 nM,133.06 ± 4.24 pg/mL
same,GRO alpha concentration,drug 100 nM,568.49 ± 35.18 pg/mL
same,HGF concentration,drug 100 nM,14.41 ± 0.55 pg/mL
same,IFN alpha concentration,drug 100 nM,0.26 ± 0 pg/mL
same,IFN gamma concentration,drug 100 nM,29276.66 ± 7697.74 pg/mL
same,IL1RA concentration,drug 100 nM,5953.24 ± 309.78 pg/mL
same,IL1 alpha concentration,drug 100 nM,7 ± 0.41 pg/mL
same,IL1 beta concentration,drug 100 nM,8.66 ± 0.41 pg/mL
same,IL2 concentration,drug 100 nM,31.33 ± 1.43 pg/mL
same,IL4 concentration,drug 100 nM,5.78 ± 0.72 pg/mL
same,IL5 concentration,drug 100 nM,26.52 ± 1.54 pg/mL
same,IL6 concentration,drug 100 nM,643.8 ± 27.14 pg/mL
same,IL7 concentration,drug 100 nM,2.12 ± 0.14 pg/mL
same,IL8 concentration,drug 100 nM,2980.9 ± 173.36 pg/mL
same,IL9 concentration,drug 100 nM,4.13 ± 0.43 pg/mL
same,IL10 concentration,drug 100 nM,0.88 ± 0.06 pg/mL
same,IL12p70 concentration,drug 100 nM,1.77 ± 0.18 pg/mL
same,IL13 concentration,drug 100 nM,2.55 ± 0.33 pg/mL
